Laboratory results from patent US12358915B2, “METTL3 inhibitory compounds” (STORM THERAPEUTICS LTD., priority 2019, dated 2025).
Read-outs that look alike come from different tables or passages of the source.

How the values were obtained:
MOLM-13 cells = assay: MOLM13 CTG - analysis of cell proliferation (Cell Titre Glo); format: cell-based; conditions: Homo sapiens, geometric mean, read-out: CTG MOLM13 cells IC50 GEOMEAN
Experimental: MOLM-13 or MOLM-14 cells were plated, in suspension, in 24 well tissue culture plates at final concentration of 200,000/ml, with or without 50 ng/ml IFNγ. […] Cells were incubated for 4 days at 37° C. at which point 600 μl of cell suspension was removed for Mass spectrometry analysis of m6A. 600 μl of fresh media containing the appropriate concentration of METTL3 inhibitor/IFNγ was added to remaining cell suspensions. Cells where then cultured for a further 7 days, cell suspension was sampled for analysis of proliferation and Cell surface markers periodically.
At regular time points (4, 5, 6 &7) days cells were mixed to maintain a homogenous cell suspension. 25 μl of this cell suspension was removed and added to a white 384 well plate, 25 μl of Cell Titre Glo reagent (Promega) was added, and incubated for 10 mins at room temperature before measurement of luminescence intensity, as per the manufacturers instructions.

Caov-3 cells = assay: Caov3 CTG assay - proliferation assay; format: cell-based; conditions: Homo sapiens, 120 hours treatment, 30 μM top concentration, CellTiter-Glo, geometric mean, read-out: CTG Caov3 cells IC50 GEOMEAN
Experimental: Upon treatment, Coav-3 cells were incubated for 10 min at RT with the CellTiter-Glo reagent (G7571, Promega). Measurement of the luminescence signal was performed on a microplate reader (Ensight, PerkinElmer).

METTL3/14 = target: T1, METTL3/14 (Homo sapiens, UniProt Q86U44); assay: METTL3/14 methyltransferase assay (METTL3_14 RFMS, RapidFire mass spectrometry); format: biochemical; conditions: read-out: METTL3_14 RFMS IC50;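 further: recombinant His-tagged METTL3 with FLAG-tagged METTL14 from baculovirus, SAH product quantified by mass spectrometry against isotope-labelled internal standards, 60 min at room temperature, scaled between no-RNA and DMSO-only wells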
T1 construct: The enzyme used was full-length his-tagged METTL3; His; made in house
Experimental: The enzyme used was full-length his-tagged METTL3 co-expressed with full length FLAG-tagged METTL14 in a baculovirus expression system. […] After termination, plates were sealed, centrifuged and stored at 4° C. until analysis. […] Mass Spectrometry Analysis RNA methyltransferase activity was measured label free using the RapidFireTM mass spectrometry (RF/MS) platform. Stopped and stable assay plates were analyzed on the Agilent RF300 integrated autosampler/solid-phase extraction (SPE) system coupled to an ABSciex 4000 mass spectrometer for the generation of the product S-adenosyl homocysteine (SAH) and normalized to the ratio of signal of the two internal product standards, respectively. Solvent A was water containing 0.1% (v/v) TCA. Solvent B was acetonitrile/0.1% ammonium acetate (8:2, v/v). More specifically, plates were centrifuged at 4350 rpm for 10 min, samples were aspirated under vacuum for 600 ms, then loaded onto a C18 solid-phase extraction cartridge and washed for 3 s with solvent A at a flow rate of 1.5 mL/min. Retained product and internal standards were eluted with solvent B at a flow rate of 1 mL/min for 3 s and finally the cartridge was reequilibrated with solvent A for 500 ms.

[1] = 5 nM METTL3/14, 0.2 μM RNA substrate, 0.5 μM SAM, lower limit of the assay IC50=5 nM, Compounds 266-351

T1 sequence (Q86U44 whole entry): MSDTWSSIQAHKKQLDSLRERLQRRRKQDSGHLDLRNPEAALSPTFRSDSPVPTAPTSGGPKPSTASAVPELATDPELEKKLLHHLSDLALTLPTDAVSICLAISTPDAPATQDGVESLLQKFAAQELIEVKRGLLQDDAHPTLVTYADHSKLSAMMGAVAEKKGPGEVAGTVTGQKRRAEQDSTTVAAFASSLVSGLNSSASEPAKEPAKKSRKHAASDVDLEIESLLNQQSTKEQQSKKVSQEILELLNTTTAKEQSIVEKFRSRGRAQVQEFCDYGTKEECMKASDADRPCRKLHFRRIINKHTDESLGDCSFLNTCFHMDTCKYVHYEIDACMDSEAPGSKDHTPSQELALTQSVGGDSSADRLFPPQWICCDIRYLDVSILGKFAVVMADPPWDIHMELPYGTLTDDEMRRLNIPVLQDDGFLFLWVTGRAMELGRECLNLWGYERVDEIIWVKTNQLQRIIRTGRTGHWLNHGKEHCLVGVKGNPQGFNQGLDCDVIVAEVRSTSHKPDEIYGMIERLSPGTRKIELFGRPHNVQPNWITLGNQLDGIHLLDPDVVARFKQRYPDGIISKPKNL
T1 sequence (Q9HCE5 whole entry partner): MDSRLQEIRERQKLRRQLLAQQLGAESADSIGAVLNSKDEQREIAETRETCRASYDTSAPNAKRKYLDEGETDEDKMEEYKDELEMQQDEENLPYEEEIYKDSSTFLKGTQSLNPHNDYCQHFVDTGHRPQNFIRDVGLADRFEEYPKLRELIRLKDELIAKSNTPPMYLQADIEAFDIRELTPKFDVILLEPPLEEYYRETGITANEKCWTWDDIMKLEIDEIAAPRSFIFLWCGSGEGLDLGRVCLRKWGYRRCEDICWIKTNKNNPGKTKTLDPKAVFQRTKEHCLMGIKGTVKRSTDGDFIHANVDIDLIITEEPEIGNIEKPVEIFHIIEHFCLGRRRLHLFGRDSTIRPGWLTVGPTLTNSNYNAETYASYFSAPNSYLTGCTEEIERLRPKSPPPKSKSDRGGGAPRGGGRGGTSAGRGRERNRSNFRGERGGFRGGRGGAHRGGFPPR

Structure (SMILES) | IC50 (MOLM-13 cells) [nM] | IC50 (Caov-3 cells) [nM] | IC50 (METTL3/14; [1]) [nM] | IC50 (METTL3/14; 5 nM METTL3/14, 0.2 μM RNA substrate, 0.5 μM SAM, lower limit of the assay IC50=5 nM, Compounds 63-265) [nM] | IC50 (METTL3/14) [nM]
O=C(NCc1cn2cc(CNCC34CC(F)(C3)C4)ccc2n1)c1cc(=O)n2ccccc2n1 [Compound 276, N-[[6-[[(3-fluoro-1-bicyclo[1.1.1]pentanyl)methylamino]methyl]imidazo[1,2-a]pyridin-2-yl]methyl]-4-oxo-pyrido[1,2-a]pyrimidine-2-carboxamide] | 657 | 248 | 6.1 |  | 
O=C(NCc1cn2cc(CNCC3CCC3)ccc2n1)c1cc(=O)n2ccccc2n1 [Example 212, N-[[6-[(cyclobutylmethylamino)methyl]imidazo[1,2-a]pyridin-2-yl]methyl]-4-oxo-pyrido[1,2-a]pyrimidine-2-carboxamide] | 1820 | 320 |  | 6.25 | 
COc1cc(-c2cn(Cc3cn4cc(CNCC5(O)CCC5)ccc4n3)nn2)c2cn[nH]c2c1 [Example 269, 1-[[[2-[[4-(6-methoxy-1H-indazol-4-yl)triazol-1-yl]methyl]imidazo[1,2-a]pyridin-6-yl]methylamino]methyl]cyclobutanol] | 1390 | 692 | 8.05 |  | 
COc1cc(-c2cn(Cc3cn4cc(CNCC5CCC5)ccc4n3)nn2)c2cn[nH]c2c1 [Example 270, N-(cyclobutylmethyl)-1-[2-[[4-(6-methoxy-1H-indazol-4-yl)triazol-1-yl]methyl]imidazo[1,2-a]pyridin-6-yl]methanamine] | 431 | 161 |  |  | ≤ 3.63
COc1ccc2[nH]ncc2c1-c1cn(Cc2cn3cc(CNCC4CCC4)ccc3n2)nn1 [Example 271, N-(cyclobutylmethyl)-1-[2-[[4-(5-methoxy-1H-indazol-4-yl)triazol-1-yl]methyl]imidazo[1,2-a]pyridin-6-yl]methanamine] | 1170 | 558 | 6.1 |  | 
O=C(O)c1cc(-c2cn(Cc3cn4cc(CNCC5CCC5)ccc4n3)nn2)c2cn[nH]c2c1 [Example 297, 4-[1-[[6-[(cyclobutylmethylamino)methyl]imidazo[1,2-a]pyridin-2-yl]methyl]triazol-4-yl]-1H-indazole-6-carboxylic acid] | ≥ 30000 |  | 737 |  | 
NC(=O)c1cc(-c2cn(Cc3cn4cc(CNCC5CCC5)ccc4n3)nn2)c2cn[nH]c2c1 [Example 298, 4-[1-[[6-[(cyclobutylmethylamino)methyl]imidazo[1,2-a]pyridin-2-yl]methyl]triazol-4-yl]-1H-indazole-6-carboxamide] | ≥ 30000 |  | 42.1 |  | 
CN(C)C(=O)c1cc(-c2cn(Cc3cn4cc(CNCC5CCC5)ccc4n3)nn2)c2cn[nH]c2c1 [Example 299, 4-[1-[[6-[(cyclobutylmethylamino)methyl]imidazo[1,2-a]pyridin-2-yl]methyl]triazol-4-yl]-N,N-dimethyl-1H-indazole-6-carboxamide] | ≥ 30000 |  | 112 |  | 
O=C(c1cc(-c2cn(Cc3cn4cc(CNCC5CCC5)ccc4n3)nn2)c2cn[nH]c2c1)N1CCOCC1 [Example 300, [4-[1-[[6-[(cyclobutylmethylamino)methyl]imidazo[1,2-a]pyridin-2-yl]methyl]triazol-4-yl]-1H-indazol-6-yl]-morpholino-methanone] | ≥ 30000 |  | 511 |  | 
Clc1cc(-c2cn(Cc3cn4cc(CNCC5CCC5)ccc4n3)nn2)c2cn[nH]c2c1 [Example 302, 1-[2-[[4-(6-chloro-1H-indazol-4-yl)triazol-1-yl]methyl]imidazo[1,2-a]pyridin-6-yl]-N-(cyclobutylmethyl)methanamine] | 629 | 211 |  |  | ≤ 4.35
OC1(CNCc2ccc3nc(Cn4cc(-c5cc(Cl)cc6[nH]ncc56)nn4)cn3c2)CCC1 [Example 303, 1-[[[2-[[4-(6-chloro-1H-indazol-4-yl)triazol-1-yl]methyl]imidazo[1,2-a]pyridin-6-yl]methylamino]methyl]cyclobutanol] | 1440 |  | 5.92 |  | 
Fc1ccc(-c2cn(Cc3cn4cc(CNCC5CCC5)ccc4n3)nn2)c2cn[nH]c12 [Example 305, N-(cyclobutylmethyl)-1-[2-[[4-(7-fluoro-1H-indazol-4-yl)triazol-1-yl]methyl]imidazo[1,2-a]pyridin-6-yl]methanamine] | 1830 |  | 6.01 |  | 
OC1(CNCc2ccc3nc(Cn4cc(-c5ccc(F)c6[nH]ncc56)nn4)cn3c2)CCCCC1 [Example 306, 1-[[[2-[[4-(7-fluoro-1H-indazol-4-yl)triazol-1-yl]methyl]imidazo[1,2-a]pyridin-6-yl]methylamino]methyl]cyclohexanol] | 3930 |  | 9.46 |  | 
Fc1ccc(-c2cn(Cc3cn4cc(CNCC5CCCCC5)ccc4n3)nn2)c2cn[nH]c12 [Example 307, N-(cyclohexylmethyl)-1-[2-[[4-(7-fluoro-1H-indazol-4-yl)triazol-1-yl]methyl]imidazo[1,2-a]pyridin-6-yl]methanamine] | 3680 | 1770 | 6.72 |  | 
OC1(CNCc2ccc3nc(Cn4cc(-c5ccc(F)c6[nH]ncc56)nn4)cn3c2)CCC1 [Example 308, 1-[[[2-[[4-(7-fluoro-1H-indazol-4-yl)triazol-1-yl]methyl]imidazo[1,2-a]pyridin-6-yl]methylamino]methyl]cyclobutanol] | 5610 |  | 11.4 |  | 
c1cc2nc(Cn3cc(-c4cc(N5CCOCC5)cc5[nH]ncc45)nn3)cn2cc1CNCC1CCC1 [Example 311, N-(cyclobutylmethyl)-1-[2-[[4-(6-morpholino-1H-indazol-4-yl)triazol-1-yl]methyl]imidazo[1,2-a]pyridin-6-yl]methanamine] | 3680 |  | 19 |  | 
O=C(NCc1cn2cc(C(Cc3ccccc3)NCC3CCC3)ccc2n1)c1cc(=O)n2ccccc2n1 (stereo not drawn) [Example 313, N-[[6-[1-(cyclobutylmethylamino)-2-phenyl-ethyl]imidazo[1,2-a]pyridin-2-yl]methyl]-4-oxo-pyrido[1,2-a]pyrimidine-2-carboxamide] | 11300 |  | 37.6 |  | 
Clc1ccc(-c2cn(Cc3cn4cc(CNCC5CCC5)ccc4n3)nn2)c2cn[nH]c12 [Example 315, 1-[2-[[4-(7-chloro-1H-indazol-4-yl)triazol-1-yl]methyl]imidazo[1,2-a]pyridin-6-yl]-N-(cyclobutylmethyl)methanamine] | 8360 |  | 19.3 |  | 
Fc1cc(-c2cn(Cc3cn4cc(CNCC5CCC5)ccc4n3)nn2)c2cn[nH]c2c1 [Example 318, N-(cyclobutylmethyl)-1-[2-[[4-(6-fluoro-1H-indazol-4-yl)triazol-1-yl]methyl]imidazo[1,2-a]pyridin-6-yl]methanamine] | 1180 |  | 5.67 |  | 
OC1(CNCc2ccc3nc(Cn4cc(-c5cc(F)cc6[nH]ncc56)nn4)cn3c2)CCC1 [Example 319, 1-[[[2-[[4-(6-fluoro-1H-indazol-4-yl)triazol-1-yl]methyl]imidazo[1,2-a]pyridin-6-yl]methylamino]methyl]cyclobutanol] | 4380 |  | 7.84 |  | 
Fc1cc(-c2cn(Cc3cn4cc(CNCC5CCCCC5)ccc4n3)nn2)c2cn[nH]c2c1 [Example 320, N-(cyclohexylmethyl)-1-[2-[[4-(6-fluoro-1H-indazol-4-yl)triazol-1-yl]methyl]imidazo[1,2-a]pyridin-6-yl]methanamine] | 2760 |  | 6.16 |  | 
O=C(NCc1cn2cc(CNCC3CCC3)ccc2n1)c1cccc2[nH]ncc12 [Example 322, N-[[6-[(cyclobutylmethylamino)methyl]imidazo[1,2-a]pyridin-2-yl]methyl]-1H-indazole-4-carboxamide] | 11000 |  | 32.5 |  | 
c1cc2[nH]ncc2c(-c2cn(Cc3cn4cc(CNCC5CCC5)ccc4n3)nn2)n1 [Example 324, N-(cyclobutylmethyl)-1-[2-[[4-(1H-pyrazolo[4,3-c]pyridin-4-yl)triazol-1-yl]methyl]imidazo[1,2-a]pyridin-6-yl]methanamine] | 3280 |  | 8.86 |  | 
c1cc2[nH]ncc2c(-c2cn(Cc3cn4cc(CNCC5CCCCC5)ccc4n3)nn2)n1 [Example 325, N-(cyclohexylmethyl)-1-[2-[[4-(1H-pyrazolo[4,3-c]pyridin-4-yl)triazol-1-yl]methyl]imidazo[1,2-a]pyridin-6-yl]methanamine] | 7500 |  | 14.5 |  | 
OC1(CNCc2ccc3nc(Cn4cc(-c5nccc6[nH]ncc56)nn4)cn3c2)CCC1 [Example 326, 1-[[[2-[[4-(1H-pyrazolo[4,3-c]pyridin-4-yl)triazol-1-yl]methyl]imidazo[1,2-a]pyridin-6-yl]methylamino]methyl]cyclobutanol] | 10700 |  | 76.6 |  | 
OC1(CNCc2ccc3nc(Cn4cc(-c5cccc6[nH]ncc56)nn4)cn3c2)CCCCC1 [Example 328, 1-[[[2-[[4-(1H-indazol-4-yl)triazol-1-yl]methyl]imidazo[1,2-a]pyridin-6-yl]methylamino]methyl]cyclohexanol] | 3250 |  | 8.84 |  | 
N#CCC(NCC1CCC1)c1ccc2nc(CNC(=O)c3cc(=O)n4ccccc4n3)cn2c1 (stereo not drawn) [Example 330, N-[[6-[2-cyano-1-(cyclobutylmethylamino)ethyl]imidazo[1,2-a]pyridin-2-yl]methyl]-4-oxo-pyrido[1,2-a]pyrimidine-2-carboxamide] | ≥ 30000 |  | 202 |  | 
O=c1cc(-c2cn(Cc3cn4cc(CNCC5CCC5)ccc4n3)nn2)nc2ccccn12 [Example 342, 2-[1-[[6-[(cyclobutylmethylamino)methyl]imidazo[1,2-a]pyridin-2-yl]methyl]triazol-4-yl]pyrido[1,2-a]pyrimidin-4-one] | 6710 |  | 18.4 |  | 
